# Results: PubChem BioAssay (NCI)
#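 Five compound concentrations were applied to cells in 96-well plates for 48 hours; endpoints were derived by simple linear interpolation of the resulting dose-response curve. Here, GI50 denotes the concentration required for 50% inhibition of growth. The concentration for full growth arrest is given as TGI.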
# Legend:
# Test in all cases: NCI tumour cell line growth inhibition, 48 h
# A549 NSCLC = tested on: A549 NSCLC
# DU-145 prostate = tested on: DU-145 prostate
# EKVX NSCLC = tested on: EKVX NSCLC
# HCC-2998 colon = tested on: HCC-2998 colon
# HL-60(TB) leukemia = tested on: HL-60(TB) leukemia
# MDA-MB-231 breast = tested on: MDA-MB-231 breast
# PC-3 prostate = tested on: PC-3 prostate
# SF-268 CNS = tested on: SF-268 CNS
# SK-MEL-28 melanoma = tested on: SK-MEL-28 melanoma
# UACC-257 melanoma = tested on: UACC-257 melanoma
Compound,GI50 (A549 NSCLC),TGI (A549 NSCLC),GI50 (DU-145 prostate),TGI (DU-145 prostate),GI50 (EKVX NSCLC),TGI (EKVX NSCLC),GI50 (HCC-2998 colon),TGI (HCC-2998 colon),GI50 (HL-60(TB) leukemia),TGI (HL-60(TB) leukemia),GI50 (MDA-MB-231 breast),TGI (MDA-MB-231 breast),GI50 (PC-3 prostate),TGI (PC-3 prostate),GI50 (SF-268 CNS),TGI (SF-268 CNS),GI50 (SK-MEL-28 melanoma),TGI (SK-MEL-28 melanoma),GI50 (UACC-257 melanoma),TGI (UACC-257 melanoma)
CCCCCCCCOC(=O)c1c(C)[nH]c(/C=C2\N=C(c3ccc[nH]3)C=C2OC)c1C,118 nM,13.3 µM,42.7 nM,9.87 µM,120 nM,9.15 µM,39.8 nM,3.46 µM,68.8 nM,4.25 µM,< 18.2 nM,0.517 µM,46.7 nM,> 34.8 µM,49.8 nM,7.2 µM,250 nM,6.14 µM,188 nM,7.45 µM
CCCCCN(CCCCC)CC(O)c1cc(Cl)ccc1OC (stereo not given),6610 nM,24.7 µM,10800 nM,23.5 µM,6390 nM,22.3 µM,5720 nM,17.8 µM,5050 nM,25.9 µM,5380 nM,20 µM,11300 nM,26.8 µM,11400 nM,24.4 µM,1630 nM,3.51 µM,4980 nM,18.7 µM
CC(C)c1nc(N(C)S(C)(=O)=O)nc(-c2ccc(F)cc2)c1/C=C/[C@@H](O)C[C@@H](O)CC(=O)O,> 100000 nM,> 100 µM,> 100000 nM,> 100 µM,> 100000 nM,> 100 µM,> 100000 nM,> 100 µM,> 100000 nM,> 100 µM,4810 nM,42 µM,41700 nM,> 100 µM,28300 nM,> 100 µM,> 100000 nM,> 100 µM,> 100000 nM,> 100 µM
CN1CCN(CCOc2ccc(-c3cnc4c(-c5cccc(F)c5)cnn4c3)cc2)CC1,1900 nM,3.94 µM,1740 nM,3.28 µM,1720 nM,3.45 µM,1700 nM,3.28 µM,2100 nM,4.36 µM,1710 nM,3.55 µM,1920 nM,4.39 µM,1990 nM,4.79 µM,2070 nM,4.54 µM,2330 nM,5.71 µM
CCC(C)Oc1nc2c(c(=O)n(C)c(=O)n2C)n1C (stereo not given),> 100000 nM,> 100 µM,> 100000 nM,> 100 µM,> 100000 nM,> 100 µM,,,> 100000 nM,> 100 µM,> 100000 nM,> 100 µM,> 100000 nM,> 100 µM,> 100000 nM,> 100 µM,> 100000 nM,> 100 µM,> 100000 nM,> 100 µM
O=S1(=O)N(Cc2ccccc2)[C@@H](Cc2ccccc2)[C@H](O)[C@H](O)[C@H](Cc2ccccc2)N1Cc1ccccc1,2990 nM,7.62 µM,3210 nM,7.55 µM,3430 nM,9.86 µM,3410 nM,6.2 µM,2970 nM,8.72 µM,2820 nM,6.39 µM,3480 nM,10.4 µM,3440 nM,8.03 µM,3350 nM,6.9 µM,2890 nM,5.93 µM
CN(Cc1ccc(C(F)(F)F)cc1)CC(O)C(=O)Nc1ccc(Cl)cc1 (stereo not given),1690 nM,3.16 µM,1380 nM,2.77 µM,1180 nM,2.51 µM,1660 nM,3.08 µM,1370 nM,3.09 µM,1340 nM,2.73 µM,1770 nM,3.21 µM,1400 nM,2.95 µM,1620 nM,3.16 µM,1810 nM,3.38 µM
CN(C)CCNC(=O)c1ccc(-c2nc3ccc4[nH]ncc4c3c3c2C2CCC3C2)cc1 (stereo not given),1650 nM,12.8 µM,965 nM,6 µM,1720 nM,6.91 µM,1740 nM,5.64 µM,388 nM,2.52 µM,1640 nM,4.11 µM,1240 nM,7.22 µM,967 nM,3.3 µM,1840 nM,5.64 µM,3070 nM,9.95 µM
CC[C@@]1(OC(=O)CN)C(=O)OCc2c1cc1n(c2=O)Cc2c-1nc1cc3c(cc1c2CCl)OCO3,20.1 nM,> 100 µM,< 10 nM,> 33.6 µM,1840 nM,26.5 µM,283 nM,3.76 µM,< 10 nM,,1900 nM,> 34.3 µM,113 nM,21.1 µM,< 10 nM,0.516 µM,474 nM,20.5 µM,1020 nM,15.1 µM
Cc1cc(Cl)ccc1OCC(=O)Nc1nc(N)nc(N)n1,,> 100 µM,,> 100 µM,,> 100 µM,,,,> 100 µM,,> 100 µM,,> 100 µM,,> 100 µM,,> 100 µM,,> 100 µM
O=C1C2=C(C(=O)c3cnccc31)C1C=CC2CC1 (stereo not given),3670 nM,8.73 µM,1800 nM,3.24 µM,1920 nM,4.13 µM,8740 nM,21.2 µM,1250 nM,4.63 µM,2450 nM,7.61 µM,2150 nM,,1900 nM,3.84 µM,2020 nM,3.69 µM,1720 nM,3.17 µM
CN(C)c1nc(=NCc2ccco2)ss1,,> 76.7 µM,,> 100 µM,,64.3 µM,,> 79.1 µM,,10.6 µM,,32.2 µM,,30.5 µM,,51.8 µM,,46.4 µM,,> 79.4 µM
c1cc(-c2nnc(SSc3ncnc4nc[nH]c34)o2)ccn1,23000 nM,> 100 µM,455 nM,> 100 µM,24400 nM,> 100 µM,3380 nM,> 100 µM,2490 nM,> 100 µM,4450 nM,> 100 µM,3480 nM,> 100 µM,2180 nM,> 100 µM,43700 nM,> 100 µM,9340 nM,> 100 µM
